SMILES | logP
CNc1ccc(-c2nc3ccccc3s2)cc1I | 3.9
COc1ccc2nc(-c3ccc(N)cc3)sc2c1 | 1.87
CNc1ccc(-c2nc3ccc(OC)cc3s2)cc1I | 3.8
Nc1ccc2nc(-c3ccc(O)cc3)sc2c1I | 1.6
COc1ccc2nc(-c3ccc(O)cc3)sc2c1 | 1.8
Nc1ccc(-c2nc3ccc(O)cc3s2)cc1I | 1.65
COCOc1ccc2nc(-c3ccc(N)cc3)sc2c1 | 1.86
CNc1ccc(-c2nc3ccc(O)cc3s2)cc1I | 2.35
COCOc1ccc2nc(-c3ccc(N)c(I)c3)sc2c1 | 3.03
Oc1ccc(-c2nc3ccc(O)c(I)c3s2)cc1 | 1.01
Nc1ccc(-c2nc3ccccc3s2)cc1 | 1.98
Nc1ccc(-c2nc3ccc(Br)cc3s2)cc1I | 4.11
COc1ccc2nc(-c3ccc(O)c(I)c3)sc2c1 | 2.31
Nc1ccc(-c2nc3ccccc3s2)cc1I | 3.17
COc1ccc2nc(-c3ccc(N)c(I)c3)sc2c1 | 3.08
COC(=O)c1ccc2nc(-c3ccc(N)c(I)c3)sc2c1 | 3.29
Oc1ccc(-c2nc3ccccc3s2)cc1 | 1.86
Oc1ccc(-c2nc3ccccc3s2)cc1I | 2.22
Oc1ccc2nc(-c3ccc(O)c(I)c3)sc2c1 | 1.09
CNc1ccc(-c2nc3ccc(Br)cc3s2)cc1I | 4.86
COc1ccc(-c2nc3ccc(N)c(I)c3s2)cc1 | 2.95
COc1ccc(-c2nc3ccc(O)c(I)c3s2)cc1 | 2.49

More lines, now with the values ahead:

logP | SMILES
2.58 | CNc1ccc(-c2nc3ccc(OC)cc3s2)cc1
3.33 | Nc1ccc(-c2nc3ccc([N+](=O)[O-])cc3s2)cc1I
2.87 | Nc1ccc(-c2nc3ccc(Br)cc3s2)cc1
3.64 | CNc1ccc(-c2nc3ccc(Br)cc3s2)cc1
1.76 | COc1ccc(-c2nc3ccc(N)cc3s2)cc1
1.75 | COc1ccc(-c2nc3ccc(O)cc3s2)cc1
4.08 | CNc1ccc(-c2nc3ccc([N+](=O)[O-])cc3s2)cc1I
2.07 | COC(=O)c1ccc2nc(-c3ccc(N)cc3)sc2c1
2.21 | Nc1ccc(-c2nc3ccc([N+](=O)[O-])cc3s2)cc1
2.96 | CNc1ccc(-c2nc3ccc([N+](=O)[O-])cc3s2)cc1

From the SangsterLogP compilation
